The subject of one data set is HIV-1. As to the kind of experiment: Anti-Viral Assay (method of Pauwels et al.). The format is cell-based. Conditions: Human immunodeficiency virus 1, read-out: Anti-Viral Assay. As to the method:
Anti-viral assays were carried out by the method described by R. E. Pauwels et al. J. Virol. Methods 1988 20(4):309-322.

The next data set addresses HIV-1 RT (Human immunodeficiency virus type 1 group M subtype B, UniProt P03366). Description: HIV Reverse Transcriptase Assay: Inhibitor IC50 Determination. Conditions: purified recombinant enzyme, poly(rA)/oligo(dT)16 template-primer, 37° C. 30 min. The format is biochemical. As to the method: HIV Reverse Transcriptase Assay: Inhibitor IC50 Determination
HIV-1 RT assay was carried out in 96-well Millipore MultiScreen MADVNOB50 plates using purified recombinant enzyme and a poly(rA)/oligo(dT)16 template-primer in a total volume of 50 μL. The assay constituents were 50 mM Tris/HCl, 50 mM NaCl, 1 mM EDTA, 6 mM MgCl2, 5 μM dTTP, 0.15 μCi [^3H] dTTP, 5 μg/ml poly (rA) pre annealed to 2.5 μg/ml oligo (dT)16 and a range of inhibitor concentrations in a final concentration of 10% DMSO. Reactions were initiated by adding 4 nM HIV-1 RT and after incubation at 37° C. for 30 min, they were stopped by the addition of 50 μl ice cold 20% TCA and allowed to precipitate at 4° C. for 30 min. The precipitates were collected by applying vacuum to the plate and sequentially washing with 3×200 μl of 10% TCA and 2×200 μl 70% ethanol. Finally, the plates were dried and radioactivity counted in a Packard TopCounter after the addition of 25 μl scintillation fluid per well. IC50's were calculated by plotting % inhibition versus log10 inhibitor concentrations.

By IC50 is commonly meant the point on the concentration scale where inhibition reaches its midpoint. In the case of `Cc1cc(C#N)ccc1Oc1ccc(CC(=O)Nc2ccc(S(N)(=O)=O)cc2Br)c(C)c1C` [Compound I-24, N-(2-Bromo-4-sulfamoyl-phenyl)-2-[4-(4-cyano-2-methyl-phenoxy)-2,3-dimethyl-phenyl]-acetamide], in the data set on HIV-1, the EC50 came to 2.6 nM. At HIV-1 RT, the IC50 came out at 202 nM.
One may read the melting point as the temperature, or range, at which the solid turns liquid. As to `Cc1cc(S(N)(=O)=O)ccc1NC(=O)Cc1ccc(Oc2cc(Cl)cc(C#N)c2)c(Br)c1` [Compound I-47, 2-[3-Bromo-4-(3-chloro-5-cyano-phenoxy)-phenyl]-N-(2-methyl-4-sulfamoyl-phenyl)-acetamide], the melting point fell in the range of 214.6 to 215.9 °C. Also, the IC50 at HIV-1 RT amounted to 339 nM.
In turn, `N#Cc1cc(Cl)cc(Oc2ccc(CC(=O)Nc3ccc(S(N)(=O)=O)cc3Cl)cc2Br)c1` [Compound I-48, 2-[3-Bromo-4-(3-chloro-5-cyano-phenoxy)-phenyl]-N-(2-chloro-4-sulfamoyl-phenyl)-acetamide] returned a melting point of 205 to 207.3 °C. Also, the IC50 at HIV-1 RT stood at 19.1 nM.
`N#Cc1cc(Cl)cc(Oc2ccc(CC(=O)Nc3ccc(CS(N)(=O)=O)cc3)cc2Br)c1` [Compound I-49, 2-[3-Bromo-4-(3-chloro-5-cyano-phenoxy)-phenyl]-N-(4-sulfamoylmethyl-phenyl)-acetamide] returned a melting point of 133.4 to 135.3 °C. Moreover, the IC50 at HIV-1 RT amounted to 2350 nM.
Taken in the same sequence, the figures for `N#Cc1cc(Cl)cc(Oc2ccc(CC(=O)Nc3ccc(S(N)(=O)=O)cc3Br)cc2Br)c1` [Compound I-50, 2-[3-Bromo-4-(3-chloro-5-cyano-phenoxy)-phenyl]-N-(2-bromo-4-sulfamoyl-phenyl)-acetamide] were 168.1 to 170.4 °C and 13.5 nM.
For `N#Cc1cc(Oc2ccc(CC(=O)Nc3ccc(S(N)(=O)=O)cc3Cl)cc2Br)cc(C(F)F)c1` [Compound I-63, 2-[3-Bromo-4-(3-cyano-5-difluoromethyl-phenoxy)-phenyl]-N-(2-chloro-4-sulfamoyl-phenyl)-acetamide], the IC50 at HIV-1 RT came out at 53.1 nM.
On to `N#Cc1cc(Oc2ccc(CC(=O)Nc3ccc(S(N)(=O)=O)cc3Br)cc2Br)cc(C(F)F)c1` [Compound I-64, 2-[3-Bromo-4-(3-cyano-5-difluoromethyl-phenoxy)-phenyl]-N-(2-bromo-4-sulfamoyl-phenyl)-acetamide], for which, at HIV-1 RT, the IC50 worked out at 61.2 nM.
The same measure, in the same setting: as for `Cc1c(CC(=O)Nc2ccc(S(N)(=O)=O)cc2)ccc(Oc2cc(Cl)cc(C#N)c2)c1C` [Compound I-65, 2-[4-(3-Chloro-5-cyano-phenoxy)-2,3-dimethyl-phenyl]-N-(4-sulfamoyl-phenyl)-acetamide], the figure is 3120 nM.
Turning to `Cc1cc(S(N)(=O)=O)ccc1NC(=O)Cc1ccc(Oc2cc(Cl)cc(C#N)c2)c(C)c1C` [Compound I-66, 2-[4-(3-Chloro-5-cyano-phenoxy)-2,3-dimethyl-phenyl]-N-(2-methyl-4-sulfamoyl-phenyl)-acetamide], the IC50 at HIV-1 RT was found to be 81.7 nM.

For the origin of these results see US7388111B2, “Non-nucleoside reverse transcriptase inhibitors” (Roche Palo Alto LLC, priority 2005, dated 2008).
